Test results reported in ChEMBL document CHEMBL4619710, “Study on structure-activity relationship of vitamin K derivatives: Conversion of the naphthoquinone part into another aromatic ring and evaluation of their neuronal differentiation-inducing activity” (2020).
Active and inactive are the calls of the source. The calls are words filed in the database; no cut-off is given here.

Legend:
Type in all cases: functional
Mus musculus [1] = species on record: Mus musculus; test: Induction of neuronal differentiation of neuronal progenitor cells isolated from embryonic mouse cerebrum at 1 uM treated every second day for 4 days and measured after 48 hrs by DAPI/MAP2 fluorescent immunostaining based assay
Mus musculus [2] = species on record: Mus musculus; test: Induction of neuronal differentiation of neuronal progenitor cells isolated from embryonic mouse cerebrum assessed as increase in MAP2 mRNA expression at 1 uM by real time PCR analysis
[3] = Induction of neuronal differentiation of neuronal progenitor cells isolated from embryonic mouse cerebrum assessed as increase in MAP2 mRNA expression at 1 uM by real time PCR analysis relative to control

SMILES	Activity (Mus musculus [1])	Activity (Mus musculus [2])	fold change (FC) [3]
CC(C)=CCC/C(C)=C/CC/C(C)=C/Cc1cccc(C)c1	inactive	inactive	
CC(C)=CCC/C(C)=C/CC/C(C)=C/Cc1ccccc1C	inactive	inactive	
COC1=C(OC)C(=O)C(C/C=C(\C)CC/C=C(\C)CCC=C(C)C)=C(C)C1=O	inactive		
CC(C)=CCC1=C(C)C(=O)c2ccccc2C1=O	Active	Active	
CC(C)=CCC/C(C)=C/Cc1ccccc1C	inactive	inactive	
CC(C)=CCC/C(C)=C/CC1=C(C)C(=O)c2ccccc2C1=O	Active	Active	
CC(C)=CCC/C(C)=C/CC1=C(C)C(=O)C(C)=C(C)C1=O	Active	Active	2
CC(C)=CCC/C(C)=C/CC/C(C)=C/CC1=C(C)C(=O)c2ccccc2C1=O	Active	Active	
CC(C)=CCC/C(C)=C/Cc1cccc(C)c1	inactive	inactive	
COC1=C(OC)C(=O)C(C/C=C(\C)CC/C=C(\C)CC/C=C(\C)CCC=C(C)C)=C(C)C1=O	Active	Active	
CC1=CC(=O)c2ccccc2C1=O	Active		
COC1=C(OC)C(=O)C(C/C=C(\C)CCC=C(C)C)=C(C)C1=O	inactive		
CC(C)=CCC/C(C)=C/CC/C(C)=C/CC1=C(C)C(=O)C(C)=C(C)C1=O	Active	Active	2
